The text below walks through data of publication doi:10.1101/2025.10.08.681114v1 (biorxiv, 2025).

Structures are written as SMILES.

The assay deals with CHI3L1 (hCHI3L1, CHI3L1-His, YKL-40) (Homo sapiens, UniProt P36222). Nature of the assay: microscale thermophoresis dose-response. Format: binding.
Sequence of CHI3L1 (hCHI3L1, CHI3L1-His, YKL-40) (P36222 22-383): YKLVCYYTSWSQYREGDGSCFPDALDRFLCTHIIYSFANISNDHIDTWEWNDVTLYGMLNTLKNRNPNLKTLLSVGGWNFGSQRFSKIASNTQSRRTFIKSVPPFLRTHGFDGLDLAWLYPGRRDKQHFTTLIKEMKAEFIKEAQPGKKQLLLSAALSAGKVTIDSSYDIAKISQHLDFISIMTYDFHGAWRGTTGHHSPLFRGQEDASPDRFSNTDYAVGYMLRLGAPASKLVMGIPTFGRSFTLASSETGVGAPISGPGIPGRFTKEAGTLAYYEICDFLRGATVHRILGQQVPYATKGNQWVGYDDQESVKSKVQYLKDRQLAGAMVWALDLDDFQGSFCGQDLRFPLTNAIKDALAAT

For `COc1cc2cc(C3CCN(C(=O)c4csc(C)c4)CC3)ncc2cc1C` [A9, compound A9], binding was characterised by a dissociation constant (Kd) of 182 ± 18 µM.
